In PubChem BioAssay (NCI):
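Five compound concentrations were applied to cells in 96-well plates for 48 hours; endpoints were derived by simple linear interpolation of the resulting dose-response curve. The concentration for 50% growth inhibition is given as GI50. TGI marks complete inhibition of growth.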

How the values were obtained:
Experiment in all cases: DTP human tumour cell line panel, 48 h
TK-10 renal = system: TK-10 renal
LOX IMVI melanoma = system: LOX IMVI melanoma
NCI-H460 lung = system: NCI-H460 lung
OVCAR-8 ovarian = system: OVCAR-8 ovarian
A498 renal = system: A498 renal
PC-3 prostate = system: PC-3 prostate
EKVX NSCLC = system: EKVX NSCLC
UACC-257 melanoma = system: UACC-257 melanoma
SF-295 CNS = system: SF-295 CNS
HL-60(TB) leukemia = system: HL-60(TB) leukemia

| SMILES | GI50 (TK-10 renal) [µM] | TGI (TK-10 renal) [µM] | GI50 (LOX IMVI melanoma) [µM] | TGI (LOX IMVI melanoma) [µM] | GI50 (NCI-H460 lung) [µM] | TGI (NCI-H460 lung) [µM] | GI50 (OVCAR-8 ovarian) [µM] | TGI (OVCAR-8 ovarian) [µM] | GI50 (A498 renal) [µM] | TGI (A498 renal) [µM] | GI50 (PC-3 prostate) [µM] | TGI (PC-3 prostate) [µM] | GI50 (EKVX NSCLC) [µM] | TGI (EKVX NSCLC) [µM] | GI50 (UACC-257 melanoma) [µM] | TGI (UACC-257 melanoma) [µM] | GI50 (SF-295 CNS) [µM] | TGI (SF-295 CNS) [µM] | GI50 (HL-60(TB) leukemia) [µM] | TGI (HL-60(TB) leukemia) [µM] |
| --- | --- | --- | --- | --- | --- | --- | --- | --- | --- | --- | --- | --- | --- | --- | --- | --- | --- | --- | --- | --- |
| COc1ccc(OC)c(/C=C/c2nc(=S)n(-c3ccc(Cl)cc3)[nH]2)c1 | 25.8 | > 100 | 5.02 | > 100 | 4.53 | > 100 | 28.4 | > 100 | 6.66 | > 100 | 8.91 | > 100 | 30 | > 100 | > 100 | > 100 | 4.16 | > 100 | 3.57 | > 100 |
| COc1cc2c(N3CCN(C(=O)Nc4ccc(OC(C)C)cc4)CC3)ncnc2cc1OCCCN1CCCCC1 | 38.9 | > 100 | 8.15 | 23.9 | 18.4 | > 61.3 | 20.9 | 99.2 | 15 | 40.7 | 18.8 | > 100 | 28.9 | > 100 | 10.3 | 23.6 | 12.5 | 27.9 | 15.1 | 36.1 |
| C[C@]12CC[C@H]3[C@@H](CCC4=CC(=O)CC[C@@]43C)[C@@H]1CC[C@@H]2c1csc(N)n1 | 11.3 | 43 | 3.38 | 15.9 | 3.46 | 13.8 | 3.42 | 26.7 | 2.51 | 12.4 | 2.88 | 47.1 | 1.12 | 8.39 | 2.75 | 13 | 1.27 | 4.2 | 1.65 | 8.18 |
| CN(C)CCCC1(c2ccc(F)cc2)OCc2cc(-c3cccc4[nH]ccc34)ccc21 (stereo unspecified) | 1.7 | 3.2 | 1.71 | 3.2 | 1.89 | 3.63 | 1.86 | 3.7 | 1.56 | 2.96 | 1.58 | 3.31 | 1.78 | 3.3 | 1.7 | 3.18 | 1.84 | 3.44 | 1.81 | 3.59 |
| CCn1c2c(c3ccccc3c1=O)C(=O)c1ccccc1-2 | – | > 100 | – | > 100 | – | – | – | > 100 | – | > 100 | – | > 100 | – | > 100 | – | > 100 | – | > 100 | – | > 100 |
| O=C1CC(c2ccccc2)Oc2ccccc21 (stereo unspecified) | – | > 100 | – | 84.3 | – | > 100 | – | > 100 | – | 94 | – | > 100 | – | > 100 | – | > 100 | – | > 100 | – | 49.5 |
| O=C1c2cccc(Oc3ccccc3)c2C(=O)c2cccc(Oc3ccccc3)c21 | > 100 | > 100 | > 100 | > 100 | > 100 | > 100 | > 100 | > 100 | > 100 | > 100 | > 100 | > 100 | > 100 | > 100 | > 100 | > 100 | 22.2 | > 100 | > 100 | > 100 |
| O=C1C=C[C@H](O)[C@@]2(CO)O[C@@H]12 | 16.1 | 29.8 | 5.51 | 19.8 | 26.8 | > 66.1 | 13.2 | 31.9 | 18.4 | 45.4 | 16.3 | 39.5 | 9.69 | 49.9 | 9.25 | 23.6 | 8.26 | 38.5 | 2.65 | 8.3 |
| COc1ccc2c(N)ncc(C#Cc3cc(C(=O)Nc4ccc(CN5CCN(C)CC5)c(C(F)(F)F)c4)cnc3C)c2c1 | 0.821 | 2.19 | 0.505 | 1.08 | 0.476 | 1.03 | 0.861 | 2.71 | 0.842 | 3 | 0.924 | 3.56 | 5.11 | 19 | 1.78 | 9.22 | 4.78 | 16.7 | 1.63 | 11.1 |
| Cc1ccc2c(-c3ccnc(Nc4ccc5c(c4)OCCO5)n3)c(-c3ccc(C(F)(F)F)cc3)nn2n1 | 8.11 | > 25 | 1.5 | 6.68 | 5.66 | > 25 | 8.48 | > 25 | 2.13 | 18 | 10.1 | > 25 | 4.72 | > 25 | 4.21 | 13.2 | 7.01 | > 25 | 6.81 | 19.4 |
| N#CC1(c2ccc(NC(=O)c3cccnc3NCc3ccncc3)cc2)CCCC1 | 23.5 | > 74.3 | 14.3 | 29.2 | 14.1 | 54.3 | 21.1 | > 83.3 | 10.2 | 60.9 | 15.5 | > 64.3 | 11.8 | > 100 | 17.7 | > 68.9 | 9.38 | 27.3 | 11.9 | 45.9 |
| CCCCCCCCCCCC[N+]1(CCCCCCCCCCCC)CCCC(C)C1 (stereo unspecified) | – | – | 0.348 | 1.39 | – | – | – | – | 1.26 | 2.52 | 0.167 | 0.536 | 0.269 | 1.65 | – | – | 0.259 | 1.29 | 0.174 | 0.666 |
| O=c1c2ccccc2sc2c(CO)ccc(NCCN3CCCCC3)c12 | – | 12.1 | – | 11 | – | 8.37 | – | 15.5 | – | 9.61 | – | 15.1 | – | 16.6 | – | 3.76 | – | 17.4 | – | 11 |
| c1ccc(-c2[nH]ncc2-c2ccnc(-c3ccc(OCCn4ccnc4)cc3)c2)nc1 | > 25 | > 25 | > 25 | > 25 | > 25 | > 25 | 14.4 | > 25 | > 25 | > 25 | 13.2 | > 25 | > 25 | > 25 | > 25 | > 25 | > 25 | > 25 | > 25 | > 25 |
